# Test results: ChEMBL document CHEMBL1147755, “5-heteroatom substituted pyrazoles as canine COX-2 inhibitors. Part 1: Structure-activity relationship studies of 5-alkylamino pyrazoles and discovery of a potent, selective, and orally active analog” (Bioorg Med Chem Lett, 2006)
# Species: Canis lupus familiaris
# Assay: Selectivity of COX1 over COX2 in canine whole blood assay
# Format: tissue-based
# Details: not given
row,Structure (SMILES),Ratio IC50
1,CC(C)(C)CNc1c(C#N)c(C(F)(F)F)nn1-c1ccc(S(N)(=O)=O)cn1,98.7
2,N#Cc1c(C(F)(F)F)nn(-c2ccc(S(N)(=O)=O)cn2)c1NC1CC2CCC1C2 (stereo not given),107
3,CS(=O)(=O)c1ccc(-n2nc(C(F)(F)F)c(C#N)c2NC2CC3CCC2C3)nc1 (stereo not given),107
4,CS(=O)(=O)c1ccc(-n2nc(C(F)(F)F)c(C#N)c2NCC2OCCO2)nc1,> 397
5,CC(C)(C)CNc1c(C#N)c(C(F)F)nn1-c1ccc(S(N)(=O)=O)cn1,48.2
6,C[C@@H]1CN(c2c(C#N)c(C(F)(F)F)nn2-c2ccc(S(C)(=O)=O)cn2)C[C@H](C)O1,> 357
7,N#Cc1c(C(F)(F)F)nn(-c2ccc(S(N)(=O)=O)cn2)c1NCC1CCCO1 (stereo not given),11.7
8,CS(=O)(=O)c1ccc(-n2nc(C(F)F)c(C#N)c2N2CCCCCC2)nc1,99.3
9,CC(C)C(C)Nc1c(C#N)c(C(F)(F)F)nn1-c1ccc(S(C)(=O)=O)cn1 (stereo not given),25.8
10,CS(=O)(=O)c1ccc(-n2nc(C(F)(F)F)c(C#N)c2NCc2cccs2)nc1,44.5
11,CS(=O)(=O)c1ccc(-n2nc(C(F)(F)F)c(C#N)c2NCC2CCCO2)nc1 (stereo not given),262
12,CC1CCCN(c2c(C#N)c(C(F)F)nn2-c2ccc(S(C)(=O)=O)cn2)C1 (stereo not given),75
13,CC(C)(C)CNc1c(C#N)c(C(F)(F)F)nn1-c1ccc(S(C)(=O)=O)cn1,> 217
14,CC1CCCCC1Nc1c(C#N)c(C(F)(F)F)nn1-c1ccc(S(C)(=O)=O)cn1 (stereo not given),36
15,CC1CC(C)CN(c2c(C#N)c(C(F)(F)F)nn2-c2ccc(S(N)(=O)=O)cn2)C1 (stereo not given),22.8

# Tested on: not listed separately
# Assay: Cmax in dog administered at 2 mg/kg, po
# Format: ADME, organism-based, Canis lupus familiaris
# Set-up: dose 2 mg/kg, route oral
# Details: in vivo
row,Structure (SMILES),Cmax [ng/mL]
1,C[C@@H]1CN(c2c(C#N)c(C(F)(F)F)nn2-c2ccc(S(C)(=O)=O)cn2)C[C@H](C)O1,134
2,N#Cc1c(C(F)(F)F)nn(-c2ccc(S(N)(=O)=O)cn2)c1NCC1CCCO1 (stereo not given),528
3,CS(=O)(=O)c1ccc(-n2nc(C(F)F)c(C#N)c2N2CCCCCC2)nc1,92
4,CS(=O)(=O)c1ccc(-n2nc(C(F)(F)F)c(C#N)c2NCC2CCCO2)nc1 (stereo not given),86
5,CC1CCCN(c2c(C#N)c(C(F)F)nn2-c2ccc(S(C)(=O)=O)cn2)C1 (stereo not given),151

# Tested on: not listed separately
# Assay: Tmax in dog administered at 2 mg/kg, po
# Format: ADME, organism-based, Canis lupus familiaris
# Set-up: dose 2 mg/kg, route oral
# Details: in vivo
row,Structure (SMILES),Tmax [h]
1,C[C@@H]1CN(c2c(C#N)c(C(F)(F)F)nn2-c2ccc(S(C)(=O)=O)cn2)C[C@H](C)O1,1
2,N#Cc1c(C(F)(F)F)nn(-c2ccc(S(N)(=O)=O)cn2)c1NCC1CCCO1 (stereo not given),1.5
3,CS(=O)(=O)c1ccc(-n2nc(C(F)F)c(C#N)c2N2CCCCCC2)nc1,0.8
4,CS(=O)(=O)c1ccc(-n2nc(C(F)(F)F)c(C#N)c2NCC2CCCO2)nc1 (stereo not given),0.5
5,CC1CCCN(c2c(C#N)c(C(F)F)nn2-c2ccc(S(C)(=O)=O)cn2)C1 (stereo not given),0.5

# Tested on: Canis familiaris
# Assay: AUC in dog administered at 2 mg/kg, po
# Format: ADME, organism-based, Canis lupus familiaris, Plasma
# Set-up: dose 2 mg/kg, route oral
# Details: in vivo
row,Structure (SMILES),AUC [ng·h/mL]
1,C[C@@H]1CN(c2c(C#N)c(C(F)(F)F)nn2-c2ccc(S(C)(=O)=O)cn2)C[C@H](C)O1,1950
2,N#Cc1c(C(F)(F)F)nn(-c2ccc(S(N)(=O)=O)cn2)c1NCC1CCCO1 (stereo not given),1360
3,CS(=O)(=O)c1ccc(-n2nc(C(F)F)c(C#N)c2N2CCCCCC2)nc1,281
4,CS(=O)(=O)c1ccc(-n2nc(C(F)(F)F)c(C#N)c2NCC2CCCO2)nc1 (stereo not given),118
5,CC1CCCN(c2c(C#N)c(C(F)F)nn2-c2ccc(S(C)(=O)=O)cn2)C1 (stereo not given),450

# Tested on: not listed separately
# Assay: Half life in dog administered at 2 mg/kg, po
# Format: ADME, organism-based, Canis lupus familiaris
# Set-up: dose 2 mg/kg, route oral
# Details: in vivo
row,Structure (SMILES),half-life [h]
1,C[C@@H]1CN(c2c(C#N)c(C(F)(F)F)nn2-c2ccc(S(C)(=O)=O)cn2)C[C@H](C)O1,30
2,N#Cc1c(C(F)(F)F)nn(-c2ccc(S(N)(=O)=O)cn2)c1NCC1CCCO1 (stereo not given),1
3,CS(=O)(=O)c1ccc(-n2nc(C(F)F)c(C#N)c2N2CCCCCC2)nc1,2.1
4,CS(=O)(=O)c1ccc(-n2nc(C(F)(F)F)c(C#N)c2NCC2CCCO2)nc1 (stereo not given),2
5,CC1CCCN(c2c(C#N)c(C(F)F)nn2-c2ccc(S(C)(=O)=O)cn2)C1 (stereo not given),4.6

# Molecular target: T1, Prostaglandin G/H synthase 1 (Canis lupus familiaris, UniProt Q8HZR1)
# T1 sequence (Q8HZR1 whole entry): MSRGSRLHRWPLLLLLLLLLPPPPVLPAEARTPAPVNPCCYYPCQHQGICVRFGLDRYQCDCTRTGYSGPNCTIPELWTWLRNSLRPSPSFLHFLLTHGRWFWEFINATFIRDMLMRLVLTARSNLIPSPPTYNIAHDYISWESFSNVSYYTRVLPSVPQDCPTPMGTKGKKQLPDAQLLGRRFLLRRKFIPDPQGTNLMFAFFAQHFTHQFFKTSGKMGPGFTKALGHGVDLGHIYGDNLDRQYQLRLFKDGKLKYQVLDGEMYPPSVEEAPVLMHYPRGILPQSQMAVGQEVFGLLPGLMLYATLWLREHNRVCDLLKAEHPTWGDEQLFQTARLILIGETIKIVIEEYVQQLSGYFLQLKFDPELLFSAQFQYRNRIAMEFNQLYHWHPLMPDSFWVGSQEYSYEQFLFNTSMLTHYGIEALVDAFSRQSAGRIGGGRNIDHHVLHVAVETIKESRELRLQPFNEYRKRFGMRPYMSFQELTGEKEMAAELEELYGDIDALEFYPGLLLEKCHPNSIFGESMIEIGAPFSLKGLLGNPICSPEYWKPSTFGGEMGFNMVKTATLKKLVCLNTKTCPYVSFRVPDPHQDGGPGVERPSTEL
# Details: not given
row,Structure (SMILES),IC50 [µM]
1,CC(C)(C)CNc1c(C#N)c(C(F)(F)F)nn1-c1ccc(S(N)(=O)=O)cn1,13.2
2,N#Cc1c(C(F)(F)F)nn(-c2ccc(S(N)(=O)=O)cn2)c1NC1CC2CCC1C2 (stereo not given),15.5
3,CS(=O)(=O)c1ccc(-n2nc(C(F)(F)F)c(C#N)c2NC2CC3CCC2C3)nc1 (stereo not given),15.5
4,CS(=O)(=O)c1ccc(-n2nc(C(F)(F)F)c(C#N)c2NCC2OCCO2)nc1,> 50
5,CC(C)(C)CNc1c(C#N)c(C(F)F)nn1-c1ccc(S(N)(=O)=O)cn1,18
6,C[C@@H]1CN(c2c(C#N)c(C(F)(F)F)nn2-c2ccc(S(C)(=O)=O)cn2)C[C@H](C)O1,> 50
7,N#Cc1c(C(F)(F)F)nn(-c2ccc(S(N)(=O)=O)cn2)c1NCC1CCCO1 (stereo not given),14.6
8,CS(=O)(=O)c1ccc(-n2nc(C(F)F)c(C#N)c2N2CCCCCC2)nc1,12.9
9,CC(C)C(C)Nc1c(C#N)c(C(F)(F)F)nn1-c1ccc(S(C)(=O)=O)cn1 (stereo not given),3.4
10,CS(=O)(=O)c1ccc(-n2nc(C(F)(F)F)c(C#N)c2NCc2cccs2)nc1,5.6
11,CS(=O)(=O)c1ccc(-n2nc(C(F)(F)F)c(C#N)c2NCC2CCCO2)nc1 (stereo not given),16.5
12,CC1CCCN(c2c(C#N)c(C(F)F)nn2-c2ccc(S(C)(=O)=O)cn2)C1 (stereo not given),2
13,CC(C)(C)CNc1c(C#N)c(C(F)(F)F)nn1-c1ccc(S(C)(=O)=O)cn1,> 50
14,CC1CCCCC1Nc1c(C#N)c(C(F)(F)F)nn1-c1ccc(S(C)(=O)=O)cn1 (stereo not given),10.8
15,CC1CC(C)CN(c2c(C#N)c(C(F)(F)F)nn2-c2ccc(S(N)(=O)=O)cn2)C1 (stereo not given),42.6

# Molecular target: T2, Cyclooxygenase-2 (Canis lupus familiaris, UniProt Q8SPQ9)
# T2 sequence (Q8SPQ9 whole entry): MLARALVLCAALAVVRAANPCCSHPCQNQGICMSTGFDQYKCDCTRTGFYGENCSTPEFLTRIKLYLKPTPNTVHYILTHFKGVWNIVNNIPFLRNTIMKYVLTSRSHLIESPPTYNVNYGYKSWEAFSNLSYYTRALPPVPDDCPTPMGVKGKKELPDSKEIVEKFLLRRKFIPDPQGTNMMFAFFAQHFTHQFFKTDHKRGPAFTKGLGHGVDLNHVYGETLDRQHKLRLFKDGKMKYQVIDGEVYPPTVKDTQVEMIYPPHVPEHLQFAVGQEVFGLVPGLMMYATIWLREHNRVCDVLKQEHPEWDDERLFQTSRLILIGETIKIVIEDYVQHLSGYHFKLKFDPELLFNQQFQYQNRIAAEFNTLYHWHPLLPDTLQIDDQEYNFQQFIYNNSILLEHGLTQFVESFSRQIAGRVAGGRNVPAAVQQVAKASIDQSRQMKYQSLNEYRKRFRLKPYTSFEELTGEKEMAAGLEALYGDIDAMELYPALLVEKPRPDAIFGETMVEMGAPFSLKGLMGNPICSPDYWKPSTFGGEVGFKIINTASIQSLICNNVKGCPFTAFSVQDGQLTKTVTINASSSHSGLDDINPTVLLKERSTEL
# Details: not given
row,Structure (SMILES),IC50 [µM]
1,CC(C)(C)CNc1c(C#N)c(C(F)(F)F)nn1-c1ccc(S(N)(=O)=O)cn1,0.13
2,N#Cc1c(C(F)(F)F)nn(-c2ccc(S(N)(=O)=O)cn2)c1NC1CC2CCC1C2 (stereo not given),0.14
3,CS(=O)(=O)c1ccc(-n2nc(C(F)(F)F)c(C#N)c2NC2CC3CCC2C3)nc1 (stereo not given),0.144
4,CS(=O)(=O)c1ccc(-n2nc(C(F)(F)F)c(C#N)c2NCC2OCCO2)nc1,0.126
5,CC(C)(C)CNc1c(C#N)c(C(F)F)nn1-c1ccc(S(N)(=O)=O)cn1,0.36
6,C[C@@H]1CN(c2c(C#N)c(C(F)(F)F)nn2-c2ccc(S(C)(=O)=O)cn2)C[C@H](C)O1,0.14
7,N#Cc1c(C(F)(F)F)nn(-c2ccc(S(N)(=O)=O)cn2)c1NCC1CCCO1 (stereo not given),1.25
8,CS(=O)(=O)c1ccc(-n2nc(C(F)F)c(C#N)c2N2CCCCCC2)nc1,0.13
9,CC(C)C(C)Nc1c(C#N)c(C(F)(F)F)nn1-c1ccc(S(C)(=O)=O)cn1 (stereo not given),0.132
10,CS(=O)(=O)c1ccc(-n2nc(C(F)(F)F)c(C#N)c2NCc2cccs2)nc1,0.125
11,CS(=O)(=O)c1ccc(-n2nc(C(F)(F)F)c(C#N)c2NCC2CCCO2)nc1 (stereo not given),0.063
12,CC1CCCN(c2c(C#N)c(C(F)F)nn2-c2ccc(S(C)(=O)=O)cn2)C1 (stereo not given),0.03
13,CC(C)(C)CNc1c(C#N)c(C(F)(F)F)nn1-c1ccc(S(C)(=O)=O)cn1,0.23
14,CC1CCCCC1Nc1c(C#N)c(C(F)(F)F)nn1-c1ccc(S(C)(=O)=O)cn1 (stereo not given),0.297
15,CC1CC(C)CN(c2c(C#N)c(C(F)(F)F)nn2-c2ccc(S(N)(=O)=O)cn2)C1 (stereo not given),1.87
